One block for each compound: values may come before it. Where a SMILES comes first, the peptide text is derived from it. [ ]: non-standard residue; d: D form. 2Nal = N[C@@H](Cc1ccc2ccccc2c1)C(=O)O
What was measured:
[1] = tested on: glucocorticoid receptor (C638G)-GFP fusion (GR-GFP) in HeLa cells; experiment: GR-GFP translocation assay
[2] = Serum stability test; type: in vitro ADME; conditions: human, 25% human serum (supernatant after centrifugation)
[3] = tested on: mammalian cells; conditions: cited from earlier work
[4] = tested on: HEK293, MCF-7, A549, H1650, and H1299; experiment: MTT cytotoxicity assay; type: cell-based, human; conditions: triplicates

SMILES: C[C@@H]1C[C@H]2[C@@H]3CCC4=CC(=O)C=C[C@]4(C)[C@@]3(F)[C@@H](O)C[C@]2(C)[C@@]1(O)C(=O)CO [Dex, dexamethasone]
effect of Rab5(Q79L) overexpression on TR [1]: no effect

half-life [2]: ~30 min
SMILES: N=C(N)NCCC[C@H](NC(=O)[C@H](CCCNC(=N)N)NC(=O)[C@H](CCCNC(=N)N)NC(=O)[C@H](CCCNC(=N)N)NC(=O)[C@H](CCCNC(=N)N)NC(=O)[C@H](CCCNC(=N)N)NC(=O)[C@H](CCCNC(=N)N)NC(=O)[C@H](CCCNC(=N)N)NC(=O)[C@@H](N)CCCNC(=N)N)C(=O)O [R9]

SMILES: N=C(N)NCCC[C@H](NC(=O)[C@H](CCCNC(=N)N)NC(=O)[C@H](CCCNC(=N)N)NC(=O)[C@H](CCC(N)=O)NC(=O)[C@H](CCCNC(=N)N)NC(=O)[C@H](CCCNC(=N)N)NC(=O)[C@H](CCCCN)NC(=O)[C@H](CCCCN)NC(=O)[C@H](CCCNC(=N)N)NC(=O)CNC(=O)[C@@H](N)Cc1ccc(O)cc1)C(=O)O [Tat]
half-life [2]: ~30 min

remaining at 24 h, 5 µM [2]: > 70%
SMILES: N=C(N)NCCC[C@@H]1NC(=O)[C@H](CCCNC(=N)N)NC(=O)[C@H](CCCNC(=N)N)NC(=O)[C@H](Cc2ccc3ccccc3c2)NC(=O)[C@H](Cc2ccccc2)NC(=O)[C@H](CCC(N)=O)NC(=O)[C@H](CCCNC(=N)N)NC1=O [cFΦR4] (cyclo(F[2Nal]RRRRQ))
efficiency of entering the cytoplasm and nucleus relative to nonaarginine (R9) [3]: 2–5 fold
growth inhibition after 72 h ([4]; 50 μM, 72 h): up to 20%
growth inhibition after 24 or 48 h ([4]; up to 50 μM, any of five human cell lines): no significant growth inhibition

From PMC4075989 (Biochemistry, 2014)
